Results published in ChEMBL document CHEMBL3044805, “A comparative study of the efficiency of several sources of induced resistance to powdery mildew (Blumeria graminis f. sp. tritici) in wheat under field conditions” (2009).

What was measured:
Triticum aestivum [1] = experiment: (§1) Induction of systemic acquired resistance against Blumeria graminis f. sp. tritici in Triticum aestivum (wheat) plants on Kanzler cultivar assessed as decrease in disease severity of powdery mildew in leaves […] (wheat) exposed to 1.2 mM compound for 3 years by small-plot experiment relative to control; format: functional; design: scale not given: the % may be the effect or the level left
Triticum aestivum [2] = experiment: as §1, with “0.3 M” for “1.2 mM”; format: functional; design: scale not given: the % may be the effect or the level left

Question: For CSC(=O)c1cccc2nnsc12 [ACIBENZOLAR-S-METHYL], which Activity (Triticum aestivum [1]) is on record?
Answer: 14.5%

Question: Which Activity (Triticum aestivum [2]) does the source give for C[N+](C)(C)CC(=O)O [BETAINE] here?
Answer: 31.8%
